Experiments:
[1] = Testis vitamin K concentration, Example 2; format: in vivo, rat; conditions: rats, 75 mg/kg in diet, 35 days (FIG. 7), P<0.05
Description: (§1) As in Example 1, the experimental animals and breeding conditions were ordinary rats (Wistar/Std, eight-week-old males) bred in a breeding room set to a temperature of 23° C., humidity of 50±5%, and a 12-hour light/dark cycle in which lights were turned on at 8 AM and turned off at 8 PM.
(§2) The breeding period was 35 days. Blood was drawn from tail veins every week at 18 o'clock. Measurements of weight, diet intake, testis vitamin K content, testis testosterone concentration, and plasma testosterone concentration were taken. The analysis method was similar to that in Example 1.
Data on testis vitamin K concentration and testosterone concentration was analyzed using the Tukey method. Analysis of changes over time in the blood testosterone concentrations was performed by two-way layout analysis of variance (repeated). In all cases, significant differences was P<0.05.

[2] = Testis vitamin K analog concentration by HPLC-reduction fluorescence, Example 1 (35-day diet); format: in vivo, rat; conditions: rats, diet with MK-4 75 mg/kg for 35 days, vs low K and control dietary groups (FIG. 1)
Description: Experimental animals: ordinary rats (Wistar/Std, eight-week-old males)
(§3) In the breeding method, preparatory breeding was performed in which the rats have free access to feed and water for three to five days. A commercially-available solid feed (product name: MR Labostock by Nosan Corp.) was used. Each experimental diet group includes four rats that were colony-bred in a wire mesh cage. After the preparatory breeding, the rats were fed respective experimental diets and bred for 35 days with free access to feed and water. Blood samples were taken, and testes were removed.
One gram of tissue was precisely measured and placed in a stoppered brown centrifuge tube. Two milliliters of 66% IPA solution was added. The sample was then homogenized in a Polytron homogenizer (Biotron) on ice. […]
The vitamin K homologues in the prepared HPLC sample are non-fluorescent, oxidized types. […] Quantities of the vitamin K groups were determined by an HPLC-reduction fluorescence method that measures fluorescence intensity of the sample. The vitamin K groups were determined as a relative value of MK-3 that was the internal standard.
In the method, the HPLC-reduction fluorescence method is used in which the non-fluorescent, oxidized type vitamin K groups become fluorescent, reduced types through use of the platinum catalyst column. The fluorescence intensity of the vitamin K groups was measured. […]

P450scc = P450scc protein level in testis by Western blot, Example 1; format: in vivo; conditions: rat testis, diet with MK-4 75 mg/kg for 35 days, vs control dietary group (FIG. 3)
Description: as §3
Testes of each of the above-described group that had been stored at −80° C. after dissection were used. Anti-P450scc antibodies were purchased from Chemicon International, Inc.
While being iced in 1 ml of 1× Phosphate buffered saline (PBS, including 10 μl of 100 mM phenyl methane sulfonyl fluoride [PMSF]), 0.2 g of testes were homogenized in the Polytron homogenizer (Biotron). […] A portion of the tissue homogenate was used to determine the quantity of protein. […]
One milliliter of ECLTM Western blotting detection reagent (Amersham Corp.) was poured over the entire membrane. […] Luminescent signals were picked up by an Las-1000 Imaging System (Fujifilm Corp.) and quantity was determined using ImageGauge (trademark) image processing software.
Protein concentration in the tissue homogenates was measured by the Bradford method. […]

[3] = Weight and diet intake of rats on experimental diets, Example 2; format: in vivo, rat; conditions: 75 mg/kg in diet, 35 days; for differences in weight: vs control dietary group (FIG. 5); for differences in diet intake: vs control dietary group (FIG. 6)
Description: as §1, §2

[4] = person per day; cited from earlier work

| Compound | testis MK-4 concentration [1] | MK-4 concentration in the testes [2] | P450scc protein level (P450scc) | differences in weight [3] | differences in diet intake [3] | tolerable upper intake level [4] |
| --- | --- | --- | --- | --- | --- | --- |
| CC(C)=CCC/C(C)=C/CC/C(C)=C/CC/C(C)=C/CC1=C(C)C(=O)c2ccccc2C1=O [MK-4, menaquinone-4] | significantly increased | significantly high | significantly higher | could not be observed | could not be observed | – |
| CC1=C(C/C=C(\C)CCC[C@H](C)CCC[C@H](C)CCCC(C)C)C(=O)c2ccccc2C1=O [vitamin K1, phylloquinone] | significantly increased | – | – | could not be observed | could not be observed | – |
| Vitamin K | – | – | – | – | – | 30 mg |

— patent US8686049B2, “Agent for increasing testosterone level” (Tohoku University, priority 2006, dated 2014)
